Measurements published in patent publication US20210041441A1, “DISCOVERY OF NOVEL MOLECULES AND REPURPOSED DRUGS FOR RAS FAMILY GTPases” (UNM Rainforest Innovations, priority 2018, published 2021).
Entries after “also recorded” stand apart in the source; their conditions may differ. Where a name gives a salt, the structure may show the parent alone. Each block holds one compound with its values, some of them ahead of it.

System: Ras family GTPases (KRas WT, G12v, G13d, G12a, G12c, G12d, Q61H, Q61L, Q61R; HRas WT, HRas G12v; CDC42 WT, CDC42 L61; Rac1 WT, Rac1 L61)
Assay: Multiplex flow cytometry Bodipy FL-GTP binding, compound screen and dose response
Details: for activity or affinity relative to other compounds / selectivity among GTPases (RAS vs non-RAS, individual proteins): multiplex dose response; for class of modulation of Bodipy-GTP binding to Ras family GTPases (pan activator, pan inhibitor, selective inhibitor, mixed activity modulator): multiplex, 10 nM Bodipy FL-GTP, compound 100-0.015 μM, normalized to DMSO

Compound: COc1ccc2cc([C@@H](C)C(=O)[O-])ccc2c1.[Na+] [(R)-Naproxen sodium salt]
activity or affinity relative to other compounds: greater activity than did the naproxen sample
class of modulation of Bodipy-GTP binding to Ras family GTPases (pan activator, pan inhibitor, selective inhibitor, mixed activity modulator) (listed as (R)-naproxen sodium salt, sodium salt): Pan activators
class of modulation of Bodipy-GTP binding to Ras family GTPases (pan activator, pan inhibitor, selective inhibitor, mixed activity modulator) (sodium salt): pan activators

selectivity among GTPases (RAS vs non-RAS, individual proteins): RAS activator/non-RAS inhibitor
class of modulation of Bodipy-GTP binding to Ras family GTPases (pan activator, pan inhibitor, selective inhibitor, mixed activity modulator): mixed activity modulators
class of modulation of Bodipy-GTP binding to Ras family GTPases (pan activator, pan inhibitor, selective inhibitor, mixed activity modulator) (listed as B-lapachone): mixed activity
class of modulation of Bodipy-GTP binding to Ras family GTPases (pan activator, pan inhibitor, selective inhibitor, mixed activity modulator) (listed as Beta-lapachone): modulators with mixed activity
Compound: CC1(C)CCC2=C(O1)c1ccccc1C(=O)C2=O [Beta Lapachone]

class of modulation of Bodipy-GTP binding to Ras family GTPases (pan activator, pan inhibitor, selective inhibitor, mixed activity modulator): mixed activity modulators
class of modulation of Bodipy-GTP binding to Ras family GTPases (pan activator, pan inhibitor, selective inhibitor, mixed activity modulator) (listed as darapladib): modulators with mixed activity
Compound: CCN(CC)CCN(Cc1ccc(-c2ccc(C(F)(F)F)cc2)cc1)C(=O)Cn1c(SCc2ccc(F)cc2)nc(=O)c2c1CCC2 [Darapladib]

class of modulation of Bodipy-GTP binding to Ras family GTPases (pan activator, pan inhibitor, selective inhibitor, mixed activity modulator): pan inhibitors
class of modulation of Bodipy-GTP binding to Ras family GTPases (pan activator, pan inhibitor, selective inhibitor, mixed activity modulator) (listed as Diffractaic Acid): Pan inhibitors
Compound: COc1cc(C)c(C(=O)Oc2cc(C)c(C(=O)O)c(O)c2C)c(OC)c1C [Diffractaic acid]

class of modulation of Bodipy-GTP binding to Ras family GTPases (pan activator, pan inhibitor, selective inhibitor, mixed activity modulator): pan activators
class of modulation of Bodipy-GTP binding to Ras family GTPases (pan activator, pan inhibitor, selective inhibitor, mixed activity modulator) (listed as dioxybenzone): activators
Compound: COc1ccc(C(=O)c2ccccc2O)c(O)c1 [Dioxybenzone]

class of modulation of Bodipy-GTP binding to Ras family GTPases (pan activator, pan inhibitor, selective inhibitor, mixed activity modulator): pan inhibitors
Compound: O=c1c(O)c(-c2ccc(O)c(O)c2)oc2cc(O)ccc12 [Fisetin]

class of modulation of Bodipy-GTP binding to Ras family GTPases (pan activator, pan inhibitor, selective inhibitor, mixed activity modulator): pan activators
class of modulation of Bodipy-GTP binding to Ras family GTPases (pan activator, pan inhibitor, selective inhibitor, mixed activity modulator) (listed as fufenamic acid): Pan activators
Compound: O=C(O)c1ccccc1Nc1cccc(C(F)(F)F)c1 [Flufenamic Acid]

class of modulation of Bodipy-GTP binding to Ras family GTPases (pan activator, pan inhibitor, selective inhibitor, mixed activity modulator): pan activators
class of modulation of Bodipy-GTP binding to Ras family GTPases (pan activator, pan inhibitor, selective inhibitor, mixed activity modulator) (listed as fluribuprofen): Pan activators
Compound: CC(C(=O)O)c1ccc(-c2ccccc2)c(F)c1 (centres unmarked) [Flurbiprofen]

class of modulation of Bodipy-GTP binding to Ras family GTPases (pan activator, pan inhibitor, selective inhibitor, mixed activity modulator): pan inhibitors
Compound: Nc1nc2ncc(CNc3ccc(C(=O)N[C@@H](CCC(=O)O)C(=O)O)cc3)nc2c(=O)[nH]1 [Folic acid]

Compound: CN(C)CCCn1cc(C2=C(c3c[nH]c4ccccc34)C(=O)NC2=O)c2ccccc21 [GF109203X]
selectivity among GTPases (RAS vs non-RAS, individual proteins): selective activator non-RAS
class of modulation of Bodipy-GTP binding to Ras family GTPases (pan activator, pan inhibitor, selective inhibitor, mixed activity modulator): modulators with mixed activity

class of modulation of Bodipy-GTP binding to Ras family GTPases (pan activator, pan inhibitor, selective inhibitor, mixed activity modulator): pan inhibitors
class of modulation of Bodipy-GTP binding to Ras family GTPases (pan activator, pan inhibitor, selective inhibitor, mixed activity modulator) (listed as GSK3787): Pan inhibitors
Compound: O=C(NCCS(=O)(=O)c1ccc(C(F)(F)F)cn1)c1ccc(Cl)cc1 [GSK 3787]

class of modulation of Bodipy-GTP binding to Ras family GTPases (pan activator, pan inhibitor, selective inhibitor, mixed activity modulator): pan inhibitors
Compound: Oc1ccc2ccccc2c1SSc1c(O)ccc2ccccc12 [IPA 3]

Compound: CCC(Cc1c(I)cc(I)c(N)c1I)C(=O)O (centres unmarked) [Iopanic acid]
class of modulation of Bodipy-GTP binding to Ras family GTPases (pan activator, pan inhibitor, selective inhibitor, mixed activity modulator): pan activators
class of modulation of Bodipy-GTP binding to Ras family GTPases (pan activator, pan inhibitor, selective inhibitor, mixed activity modulator) (listed as iopanic acid): activators

class of modulation of Bodipy-GTP binding to Ras family GTPases (pan activator, pan inhibitor, selective inhibitor, mixed activity modulator): mixed activity modulators
class of modulation of Bodipy-GTP binding to Ras family GTPases (pan activator, pan inhibitor, selective inhibitor, mixed activity modulator) (listed as ipsapirone): modulators with mixed activity
Compound: O=C1c2ccccc2S(=O)(=O)N1CCCCN1CCN(c2ncccn2)CC1 [Ipsapirone]

Compound: Cc1ccc(Cl)c(Nc2ccccc2C(=O)O)c1Cl [Meclofenamic acid sodium salt monohydrate]
class of modulation of Bodipy-GTP binding to Ras family GTPases (pan activator, pan inhibitor, selective inhibitor, mixed activity modulator) (listed as meclofenamic acid sodium salt monohydrate, sodium salt monohydrate): Pan activators
class of modulation of Bodipy-GTP binding to Ras family GTPases (pan activator, pan inhibitor, selective inhibitor, mixed activity modulator) (sodium salt monohydrate): pan activators

Compound: Cc1cccc(Nc2ccccc2C(=O)O)c1C [Mefenamic Acid]
class of modulation of Bodipy-GTP binding to Ras family GTPases (pan activator, pan inhibitor, selective inhibitor, mixed activity modulator): pan activators
class of modulation of Bodipy-GTP binding to Ras family GTPases (pan activator, pan inhibitor, selective inhibitor, mixed activity modulator) (listed as mefenamic acid): Pan activators

class of modulation of Bodipy-GTP binding to Ras family GTPases (pan activator, pan inhibitor, selective inhibitor, mixed activity modulator): PanActivators
Compound: CC1=CC(=O)c2ccccc2C1=O [Menindione]

Compound: COc1ccc2cc([C@H](C)C(=O)O)ccc2c1 [Naproxen]
class of modulation of Bodipy-GTP binding to Ras family GTPases (pan activator, pan inhibitor, selective inhibitor, mixed activity modulator): pan activators
class of modulation of Bodipy-GTP binding to Ras family GTPases (pan activator, pan inhibitor, selective inhibitor, mixed activity modulator) (listed as naproxen): Pan activators

class of modulation of Bodipy-GTP binding to Ras family GTPases (pan activator, pan inhibitor, selective inhibitor, mixed activity modulator): mixed activity modulators
Compound: Cc1cc(I)ccc1Nc1c(C(=O)NOCC2CC2)cc(F)c(F)c1F [PD 198306]
class of modulation of Bodipy-GTP binding to Ras family GTPases (pan activator, pan inhibitor, selective inhibitor, mixed activity modulator) (listed as PD198306): mixed activity with mostly activation, but some inhibition as well; also recorded: modulators with mixed activity

class of modulation of Bodipy-GTP binding to Ras family GTPases (pan activator, pan inhibitor, selective inhibitor, mixed activity modulator): pan inhibitors
Compound: N#CSc1cc(SC#N)c(N)nc1N [PR-619]

class of modulation of Bodipy-GTP binding to Ras family GTPases (pan activator, pan inhibitor, selective inhibitor, mixed activity modulator): mixed activity modulators
class of modulation of Bodipy-GTP binding to Ras family GTPases (pan activator, pan inhibitor, selective inhibitor, mixed activity modulator) (listed as pimethixene maleate): modulators with mixed activity
class of modulation of Bodipy-GTP binding to Ras family GTPases (pan activator, pan inhibitor, selective inhibitor, mixed activity modulator) (listed as pimethixine maleate): mixed activity
Compound: CN1CCC(=C2c3ccccc3Sc3ccccc32)CC1 [Pimethixene Maleate]

Compound: CC(C)Cc1ccc(C(C)C(=O)O)cc1 (stereo not drawn) [S-(+)-Ibuprofen]
activity or affinity relative to other compounds: lower affinity than the mixture

class of modulation of Bodipy-GTP binding to Ras family GTPases (pan activator, pan inhibitor, selective inhibitor, mixed activity modulator): pan activators
class of modulation of Bodipy-GTP binding to Ras family GTPases (pan activator, pan inhibitor, selective inhibitor, mixed activity modulator) (listed as salsalate): Pan activators
Compound: O=C(Oc1ccccc1C(=O)O)c1ccccc1O [Salsalate]

Compound: Cc1c(Cl)cccc1Nc1ccccc1C(=O)O [Tolfenamic acid]
class of modulation of Bodipy-GTP binding to Ras family GTPases (pan activator, pan inhibitor, selective inhibitor, mixed activity modulator): pan activators
class of modulation of Bodipy-GTP binding to Ras family GTPases (pan activator, pan inhibitor, selective inhibitor, mixed activity modulator) (listed as tolfenamic acid): Pan activators

class of modulation of Bodipy-GTP binding to Ras family GTPases (pan activator, pan inhibitor, selective inhibitor, mixed activity modulator): pan activators
Compound: A-7 hydrochloride
